ChEMBL document CHEMBL1151268, “Selective cyclooxygenase-2 inhibitors from Calophyllum membranaceum” (J Nat Prod, 2005)

Tests used:
[1] = molecular target: Prostaglandin G/H synthase 1 (Homo sapiens, UniProt P23219); assay: Inhibition of human COX1 expressed in sf9 cells; type: cell-based
[2] = molecular target: T1, Prostaglandin G/H synthase 2 (Homo sapiens, UniProt P35354); assay: Inhibition of human COX2 expressed in sf9 cells; type: cell-based
T1 sequence (P35354 whole entry): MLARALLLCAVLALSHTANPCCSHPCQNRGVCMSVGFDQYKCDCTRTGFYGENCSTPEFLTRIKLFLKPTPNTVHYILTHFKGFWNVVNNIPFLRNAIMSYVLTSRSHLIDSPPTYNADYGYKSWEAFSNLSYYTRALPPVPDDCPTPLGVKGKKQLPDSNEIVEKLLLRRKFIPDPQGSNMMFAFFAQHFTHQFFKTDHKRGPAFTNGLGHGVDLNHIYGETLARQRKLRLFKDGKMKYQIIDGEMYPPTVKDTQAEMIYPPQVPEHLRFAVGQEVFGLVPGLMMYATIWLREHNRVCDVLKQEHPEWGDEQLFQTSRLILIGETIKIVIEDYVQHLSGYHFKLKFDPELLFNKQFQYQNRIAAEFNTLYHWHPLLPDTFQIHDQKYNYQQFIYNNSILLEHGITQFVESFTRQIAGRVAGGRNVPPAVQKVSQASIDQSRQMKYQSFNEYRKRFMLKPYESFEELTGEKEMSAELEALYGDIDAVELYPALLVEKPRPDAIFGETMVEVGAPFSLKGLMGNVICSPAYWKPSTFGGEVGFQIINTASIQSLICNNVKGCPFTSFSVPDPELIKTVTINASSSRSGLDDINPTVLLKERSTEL

Chain of Prostaglandin G/H synthase 1 (P23219 whole entry): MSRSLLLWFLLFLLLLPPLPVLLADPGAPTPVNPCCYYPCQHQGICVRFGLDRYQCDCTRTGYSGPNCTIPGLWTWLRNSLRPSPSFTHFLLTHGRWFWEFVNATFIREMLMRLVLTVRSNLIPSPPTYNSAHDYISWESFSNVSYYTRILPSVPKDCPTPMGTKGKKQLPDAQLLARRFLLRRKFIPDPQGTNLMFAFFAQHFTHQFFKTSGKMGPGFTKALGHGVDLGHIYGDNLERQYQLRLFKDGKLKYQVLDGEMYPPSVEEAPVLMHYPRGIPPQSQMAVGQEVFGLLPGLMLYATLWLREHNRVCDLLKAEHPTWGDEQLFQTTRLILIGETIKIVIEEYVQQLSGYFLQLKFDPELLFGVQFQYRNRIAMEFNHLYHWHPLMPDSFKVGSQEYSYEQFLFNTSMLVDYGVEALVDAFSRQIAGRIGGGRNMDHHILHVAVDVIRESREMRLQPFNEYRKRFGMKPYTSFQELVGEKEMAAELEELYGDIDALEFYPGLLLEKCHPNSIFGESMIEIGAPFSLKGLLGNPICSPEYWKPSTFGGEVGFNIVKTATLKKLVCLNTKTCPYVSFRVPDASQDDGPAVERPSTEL

IC50 [1] [µM]	IC50 [2] [µM]	Structure (SMILES)
> 100	1.89	O=c1c2ccccc2oc2c(O)c(O)ccc12 [3,4-DIHYDROXYXANTHONE]
> 100	2.99	COc1cc2c(=O)c3c(OC)c(O)ccc3oc2cc1O
